Measurements from patent US6139862A, “Pharmaceutical dipeptide compositions and methods of use thereof” (priority 1998, dated 2000).

Settings: in vivo
Excerpt: Due to its simple nature, the dipeptide is rather inexpensive to manufacture.

For `CC[C@H](C)[C@H](N)C(=O)N[C@@H](Cc1c[nH]c2ccccc12)C(=O)O` [Ile-Trp, L-Ile-L-Trp], which “significant side effects from the use of the dipeptide” value is on record?
The value was “not found any significant side effects”.
